Experimental data: the kinase profiling compilation of Christmann-Franck et al. (2016)

Experiments:
Experiment in all cases: KINOMEscan competition binding
Settings in all cases: compound 10.0 µM
[1] = target: MINK1 (human) (UniProt Q8N4C8)
[2] = target: MAPK9 (human) (UniProt P45984)
[3] = target: FGFR3 (human) (UniProt P22607)
[4] = target: CSNK2A2 (human) (UniProt P19784)
[5] = target: MAP3K7 (human) (UniProt O43318)
[6] = target: EPHB2 (human) (UniProt P29323)
[7] = target: CAMKK1 (human) (UniProt Q8N5S9)
[8] = target: CDK11B (human) (UniProt P21127)
[9] = target: ERBB2 (human) (UniProt P04626)
[10] = target: JAK3 JH1 catalytic (human) (UniProt P52333)
[11] = target: CAMKK2 (human) (UniProt Q96RR4)
[12] = target: CDK19 (human) (UniProt Q9BWU1)
[13] = target: DYRK1B (human) (UniProt Q9Y463)
[14] = target: INSR (human) (UniProt P06213)
[15] = target: MAP2K1 (human) (UniProt Q02750)
MAP2K1 (human), sequence (Q02750 whole entry, looked up): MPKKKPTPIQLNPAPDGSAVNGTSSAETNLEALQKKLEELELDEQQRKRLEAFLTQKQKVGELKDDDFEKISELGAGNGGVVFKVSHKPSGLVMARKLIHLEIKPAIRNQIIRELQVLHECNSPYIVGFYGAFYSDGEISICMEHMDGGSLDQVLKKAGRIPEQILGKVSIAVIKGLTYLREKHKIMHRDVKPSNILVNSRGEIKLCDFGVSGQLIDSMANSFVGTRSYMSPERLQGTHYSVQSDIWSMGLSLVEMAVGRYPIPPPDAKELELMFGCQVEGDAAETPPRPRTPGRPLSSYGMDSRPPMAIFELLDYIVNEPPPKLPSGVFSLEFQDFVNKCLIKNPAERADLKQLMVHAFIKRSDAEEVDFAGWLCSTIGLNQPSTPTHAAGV

[16] = target: STK33 (human) (UniProt Q9BYT3)
STK33 (human), sequence (Q9BYT3 whole entry, looked up): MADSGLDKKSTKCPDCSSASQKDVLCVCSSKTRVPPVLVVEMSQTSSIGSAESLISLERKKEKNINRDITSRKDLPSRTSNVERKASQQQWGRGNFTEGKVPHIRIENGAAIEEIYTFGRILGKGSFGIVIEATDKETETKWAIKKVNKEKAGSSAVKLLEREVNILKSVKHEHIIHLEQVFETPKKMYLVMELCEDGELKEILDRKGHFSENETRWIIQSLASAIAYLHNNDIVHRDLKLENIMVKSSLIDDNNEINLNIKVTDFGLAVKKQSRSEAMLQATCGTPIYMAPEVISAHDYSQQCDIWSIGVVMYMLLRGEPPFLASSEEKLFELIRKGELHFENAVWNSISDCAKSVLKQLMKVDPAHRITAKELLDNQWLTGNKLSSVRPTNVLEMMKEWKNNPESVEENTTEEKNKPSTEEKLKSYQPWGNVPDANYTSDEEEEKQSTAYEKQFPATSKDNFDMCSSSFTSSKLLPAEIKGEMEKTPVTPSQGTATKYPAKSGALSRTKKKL

[17] = target: ROCK2 (human) (UniProt O75116)
[18] = target: EPHA6 (human) (UniProt Q9UF33)
EPHA6 (human), sequence (Q9UF33 whole entry, looked up): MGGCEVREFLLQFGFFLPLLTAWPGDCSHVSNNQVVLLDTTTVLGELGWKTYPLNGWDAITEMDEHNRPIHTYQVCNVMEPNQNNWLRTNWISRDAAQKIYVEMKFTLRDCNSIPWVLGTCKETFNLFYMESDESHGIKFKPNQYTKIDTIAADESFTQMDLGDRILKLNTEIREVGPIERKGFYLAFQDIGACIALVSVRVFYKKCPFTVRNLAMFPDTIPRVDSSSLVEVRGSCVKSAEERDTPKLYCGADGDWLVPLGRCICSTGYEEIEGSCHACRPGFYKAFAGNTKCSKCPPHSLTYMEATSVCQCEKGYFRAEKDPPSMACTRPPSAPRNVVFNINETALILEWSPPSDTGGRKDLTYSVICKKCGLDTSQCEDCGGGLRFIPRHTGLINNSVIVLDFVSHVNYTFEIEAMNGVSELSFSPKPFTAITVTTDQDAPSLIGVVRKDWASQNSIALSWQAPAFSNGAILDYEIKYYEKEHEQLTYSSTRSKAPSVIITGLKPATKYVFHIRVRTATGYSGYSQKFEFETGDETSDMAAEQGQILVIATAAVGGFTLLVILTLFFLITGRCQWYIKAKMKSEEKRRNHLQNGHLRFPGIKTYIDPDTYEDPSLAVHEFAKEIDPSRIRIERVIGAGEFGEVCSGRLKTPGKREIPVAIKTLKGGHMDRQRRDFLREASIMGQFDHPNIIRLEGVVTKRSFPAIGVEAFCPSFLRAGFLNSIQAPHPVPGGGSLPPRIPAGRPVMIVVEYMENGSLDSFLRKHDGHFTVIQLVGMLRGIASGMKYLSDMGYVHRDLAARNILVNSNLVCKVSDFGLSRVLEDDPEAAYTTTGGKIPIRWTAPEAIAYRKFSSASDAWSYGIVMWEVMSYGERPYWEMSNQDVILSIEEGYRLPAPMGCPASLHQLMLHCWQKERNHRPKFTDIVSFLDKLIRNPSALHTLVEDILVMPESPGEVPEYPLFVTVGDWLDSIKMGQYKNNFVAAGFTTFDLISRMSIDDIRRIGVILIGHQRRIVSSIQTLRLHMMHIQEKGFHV

[19] = target: PAK6 (human) (UniProt Q9NQU5)
[20] = target: PRKD2 (human) (UniProt Q9BZL6)
PRKD2 (human), sequence (Q9BZL6 whole entry, looked up): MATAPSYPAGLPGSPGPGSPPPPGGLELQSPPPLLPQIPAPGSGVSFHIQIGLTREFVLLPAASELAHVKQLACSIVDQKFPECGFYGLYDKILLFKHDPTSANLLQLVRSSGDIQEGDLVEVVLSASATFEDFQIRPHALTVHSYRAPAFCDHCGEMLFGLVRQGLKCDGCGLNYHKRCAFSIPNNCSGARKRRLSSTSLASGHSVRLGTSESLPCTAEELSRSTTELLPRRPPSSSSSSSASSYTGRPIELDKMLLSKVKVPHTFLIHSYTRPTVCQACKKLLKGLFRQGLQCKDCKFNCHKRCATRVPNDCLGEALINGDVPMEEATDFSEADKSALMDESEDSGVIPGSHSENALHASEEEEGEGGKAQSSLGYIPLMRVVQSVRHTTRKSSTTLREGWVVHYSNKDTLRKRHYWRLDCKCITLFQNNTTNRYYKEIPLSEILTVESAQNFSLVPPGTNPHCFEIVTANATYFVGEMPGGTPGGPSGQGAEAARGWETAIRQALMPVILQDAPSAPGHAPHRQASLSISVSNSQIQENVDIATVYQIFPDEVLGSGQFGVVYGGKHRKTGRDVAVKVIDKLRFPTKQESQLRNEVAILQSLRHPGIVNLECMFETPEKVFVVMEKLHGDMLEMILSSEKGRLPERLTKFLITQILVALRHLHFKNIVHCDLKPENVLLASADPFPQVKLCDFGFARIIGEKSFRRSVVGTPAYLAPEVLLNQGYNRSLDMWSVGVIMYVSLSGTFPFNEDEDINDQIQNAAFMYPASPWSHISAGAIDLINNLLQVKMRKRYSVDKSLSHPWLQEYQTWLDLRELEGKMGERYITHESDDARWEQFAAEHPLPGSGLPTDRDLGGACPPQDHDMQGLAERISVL

[21] = target: DAPK3 (human) (UniProt O43293)
[22] = target: LIMK1 (human) (UniProt P53667)
[23] = target: TESK1 (human) (UniProt Q15569)
[24] = target: WEE2 (human) (UniProt P0C1S8)
[25] = target: DCLK1 (human) (UniProt O15075)
[26] = target: PRKAA1 (human) (UniProt Q13131)
[27] = target: AURKB (human) (UniProt Q96GD4)
[28] = target: MYLK4 (human) (UniProt Q86YV6)
MYLK4 (human), sequence (Q86YV6 whole entry, looked up): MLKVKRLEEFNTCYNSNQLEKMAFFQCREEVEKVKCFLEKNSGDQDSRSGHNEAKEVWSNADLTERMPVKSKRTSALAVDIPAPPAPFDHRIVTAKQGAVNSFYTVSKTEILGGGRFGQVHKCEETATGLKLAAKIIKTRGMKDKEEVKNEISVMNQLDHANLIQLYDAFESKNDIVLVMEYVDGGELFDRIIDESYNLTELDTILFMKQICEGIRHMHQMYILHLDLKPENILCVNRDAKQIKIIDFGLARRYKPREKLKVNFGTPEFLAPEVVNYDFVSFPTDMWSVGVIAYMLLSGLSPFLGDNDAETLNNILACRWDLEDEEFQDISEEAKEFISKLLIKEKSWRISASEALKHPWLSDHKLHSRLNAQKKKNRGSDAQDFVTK

[29] = target: PKMYT1 (human) (UniProt Q99640)
PKMYT1 (human), sequence (Q99640 whole entry, looked up): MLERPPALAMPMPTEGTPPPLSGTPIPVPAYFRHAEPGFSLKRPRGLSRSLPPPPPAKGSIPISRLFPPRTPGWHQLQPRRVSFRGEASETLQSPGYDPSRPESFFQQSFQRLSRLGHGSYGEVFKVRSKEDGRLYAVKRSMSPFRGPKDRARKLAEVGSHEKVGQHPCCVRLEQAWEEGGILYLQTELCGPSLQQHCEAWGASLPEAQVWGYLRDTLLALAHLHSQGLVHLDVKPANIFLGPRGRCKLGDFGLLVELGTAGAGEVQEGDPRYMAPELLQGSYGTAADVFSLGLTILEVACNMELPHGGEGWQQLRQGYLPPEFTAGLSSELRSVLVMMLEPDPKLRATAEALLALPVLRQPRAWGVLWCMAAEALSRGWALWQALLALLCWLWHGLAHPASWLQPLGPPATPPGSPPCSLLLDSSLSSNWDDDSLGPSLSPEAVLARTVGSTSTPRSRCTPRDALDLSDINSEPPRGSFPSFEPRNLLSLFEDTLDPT

[30] = target: PIM3 (human) (UniProt Q86V86)
[31] = target: MARK2 (human) (UniProt Q7KZI7)
[32] = target: MET (human) (UniProt P08581)
[33] = target: MAP3K12 (human) (UniProt Q12852)
[34] = target: SLK (human) (UniProt Q9H2G2)
SLK (human), sequence (Q9H2G2 whole entry, looked up): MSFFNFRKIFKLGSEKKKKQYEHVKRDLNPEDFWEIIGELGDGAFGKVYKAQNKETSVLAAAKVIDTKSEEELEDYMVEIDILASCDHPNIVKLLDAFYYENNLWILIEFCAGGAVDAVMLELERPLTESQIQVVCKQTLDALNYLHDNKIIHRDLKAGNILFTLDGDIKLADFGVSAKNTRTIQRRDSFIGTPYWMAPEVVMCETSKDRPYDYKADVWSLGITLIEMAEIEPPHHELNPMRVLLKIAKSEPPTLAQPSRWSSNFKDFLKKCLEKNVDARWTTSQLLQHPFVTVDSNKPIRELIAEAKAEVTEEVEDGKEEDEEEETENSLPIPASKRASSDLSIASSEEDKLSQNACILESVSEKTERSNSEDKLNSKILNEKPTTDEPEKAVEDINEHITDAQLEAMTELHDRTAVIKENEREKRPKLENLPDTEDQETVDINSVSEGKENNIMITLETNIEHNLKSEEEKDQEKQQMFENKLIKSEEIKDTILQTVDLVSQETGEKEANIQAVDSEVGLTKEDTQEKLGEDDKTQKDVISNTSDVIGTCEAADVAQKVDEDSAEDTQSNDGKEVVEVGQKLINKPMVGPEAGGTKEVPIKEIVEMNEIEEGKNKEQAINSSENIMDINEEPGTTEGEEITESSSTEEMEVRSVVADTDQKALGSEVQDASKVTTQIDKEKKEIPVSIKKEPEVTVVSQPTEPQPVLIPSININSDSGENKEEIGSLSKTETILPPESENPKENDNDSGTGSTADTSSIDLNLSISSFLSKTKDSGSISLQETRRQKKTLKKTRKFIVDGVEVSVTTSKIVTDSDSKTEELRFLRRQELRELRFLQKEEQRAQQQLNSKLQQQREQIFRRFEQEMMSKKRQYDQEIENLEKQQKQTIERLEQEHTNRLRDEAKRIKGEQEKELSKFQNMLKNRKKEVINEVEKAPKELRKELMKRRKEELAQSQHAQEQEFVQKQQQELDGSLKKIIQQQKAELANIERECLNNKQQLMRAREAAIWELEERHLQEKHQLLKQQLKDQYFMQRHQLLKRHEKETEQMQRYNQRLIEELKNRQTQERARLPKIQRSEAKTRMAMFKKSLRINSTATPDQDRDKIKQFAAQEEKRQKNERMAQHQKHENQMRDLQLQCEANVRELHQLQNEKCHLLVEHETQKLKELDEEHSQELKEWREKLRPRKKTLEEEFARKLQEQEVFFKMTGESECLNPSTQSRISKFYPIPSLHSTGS

SMILES	kinase still bound, per cent of control [2] [%]	kinase still bound, per cent of control [3] [%]	kinase still bound, per cent of control [4] [%]	kinase still bound, per cent of control [6] [%]	kinase still bound, per cent of control [7] [%]	kinase still bound, per cent of control [8] [%]	kinase still bound, per cent of control [9] [%]	kinase still bound, per cent of control [10] [%]	kinase still bound, per cent of control [11] [%]	kinase still bound, per cent of control [12] [%]	kinase still bound, per cent of control [13] [%]	kinase still bound, per cent of control [14] [%]	kinase still bound, per cent of control [15] [%]	kinase still bound, per cent of control [16] [%]	kinase still bound, per cent of control [18] [%]	kinase still bound, per cent of control [19] [%]	kinase still bound, per cent of control [20] [%]	kinase still bound, per cent of control [21] [%]	kinase still bound, per cent of control [22] [%]	kinase still bound, per cent of control [23] [%]	further results
COc1cc(C)c(Sc2cnc(NC(=O)c3ccc(CNC(C)C(C)C)cc3)s2)cc1C(=O)N1CCN(C(C)=O)CC1 (stereo not drawn)	100	100	100	100	100	100	100	100	24	100	100	5.1	100	7	11	100	100	100	100	100	kinase still bound, per cent of control [1]: 100%; kinase still bound, per cent of control [5]: 100%; kinase still bound, per cent of control [17]: 100%; kinase still bound, per cent of control [24]: 3.6%; kinase still bound, per cent of control [25]: 31%; kinase still bound, per cent of control [26]: 100%; kinase still bound, per cent of control [27]: 100%; kinase still bound, per cent of control [28]: 100%; kinase still bound, per cent of control [29]: 100%; kinase still bound, per cent of control [30]: 100%; kinase still bound, per cent of control [31]: 100%; kinase still bound, per cent of control [32]: 29%; kinase still bound, per cent of control [33]: 30%; kinase still bound, per cent of control [34]: 31%
COc1cc(N2CCC(C(N)=O)CC2)ccc1Nc1nc(N)c(Cl)c(Nc2ccccc2S(=O)(=O)C(C)C)n1	100	100	100	100	18	100	18	100	6.5	100	100	0.05	100	4.5	100	100	100	100	100	100	kinase still bound, per cent of control [1]: 100%; kinase still bound, per cent of control [5]: 100%; kinase still bound, per cent of control [17]: 100%; kinase still bound, per cent of control [24]: 100%; kinase still bound, per cent of control [25]: 18%; kinase still bound, per cent of control [26]: 100%; kinase still bound, per cent of control [27]: 100%; kinase still bound, per cent of control [28]: 100%; kinase still bound, per cent of control [29]: 100%; kinase still bound, per cent of control [30]: 100%; kinase still bound, per cent of control [31]: 100%; kinase still bound, per cent of control [32]: 100%; kinase still bound, per cent of control [33]: 100%; kinase still bound, per cent of control [34]: 2.6%
COc1ccc(N(C(=O)Oc2cc(C(=O)Nc3cccc(C(F)(F)F)c3)ccc2C)c2ccnc(Nc3ccc(N4CCN(C)CC4)cc3)n2)c(OC)c1	19	3.7	100	0.9	100	8.3	100	8.8	100	100	100	100	100	100	0.35	100	100	100	2.8	3.8	kinase still bound, per cent of control [25]: 100%; kinase still bound, per cent of control [26]: 1.6%; kinase still bound, per cent of control [27]: 100%; kinase still bound, per cent of control [28]: 100%; kinase still bound, per cent of control [29]: 100%; kinase still bound, per cent of control [30]: 100%; kinase still bound, per cent of control [31]: 100%; kinase still bound, per cent of control [32]: 100%; kinase still bound, per cent of control [33]: 100%; kinase still bound, per cent of control [34]: 0.15%
